Tests used:
Human σ1 receptor = biological target: T1, Human σ1 receptor (Homo sapiens, UniProt Q99720); test: Human σ1 receptor radioligand assay ([3H](+)-pentazocine binding, transfected HEK-293 membranes); settings: binding to σ1 receptor expressed as Ki; + also covers inhibition between 1% and 50%; read-out: σ-1 binding
T1 construct: expressed in transfected cells; host or cells: HEK-293
How it was run: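 Membranes (7 μg) were incubated with 5 nM [3H](+)-pentazocine in 50 mM Tris-HCl pH 8 for 120 min at 37° C. Non-specific binding was defined with 10 μM haloperidol. Values are % inhibition at 1 or 10 μM or Ki from five concentrations, read by filtration and scintillation counting.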

[1] = biological target: Human α2δ-1 subunit of Cav2.2 calcium channel (Homo sapiens, UniProt P54289); test: Human α2δ-1 subunit of Cav2.2 calcium channel assay ([3H]-gabapentin binding); settings: binding to the α2δ-1 subunit of voltage-gated calcium channels expressed as Ki; + also covers inhibition between 1% and 50%
Human α2δ-1 subunit of Cav2.2 calcium channel, sequence (P54289 25-1103): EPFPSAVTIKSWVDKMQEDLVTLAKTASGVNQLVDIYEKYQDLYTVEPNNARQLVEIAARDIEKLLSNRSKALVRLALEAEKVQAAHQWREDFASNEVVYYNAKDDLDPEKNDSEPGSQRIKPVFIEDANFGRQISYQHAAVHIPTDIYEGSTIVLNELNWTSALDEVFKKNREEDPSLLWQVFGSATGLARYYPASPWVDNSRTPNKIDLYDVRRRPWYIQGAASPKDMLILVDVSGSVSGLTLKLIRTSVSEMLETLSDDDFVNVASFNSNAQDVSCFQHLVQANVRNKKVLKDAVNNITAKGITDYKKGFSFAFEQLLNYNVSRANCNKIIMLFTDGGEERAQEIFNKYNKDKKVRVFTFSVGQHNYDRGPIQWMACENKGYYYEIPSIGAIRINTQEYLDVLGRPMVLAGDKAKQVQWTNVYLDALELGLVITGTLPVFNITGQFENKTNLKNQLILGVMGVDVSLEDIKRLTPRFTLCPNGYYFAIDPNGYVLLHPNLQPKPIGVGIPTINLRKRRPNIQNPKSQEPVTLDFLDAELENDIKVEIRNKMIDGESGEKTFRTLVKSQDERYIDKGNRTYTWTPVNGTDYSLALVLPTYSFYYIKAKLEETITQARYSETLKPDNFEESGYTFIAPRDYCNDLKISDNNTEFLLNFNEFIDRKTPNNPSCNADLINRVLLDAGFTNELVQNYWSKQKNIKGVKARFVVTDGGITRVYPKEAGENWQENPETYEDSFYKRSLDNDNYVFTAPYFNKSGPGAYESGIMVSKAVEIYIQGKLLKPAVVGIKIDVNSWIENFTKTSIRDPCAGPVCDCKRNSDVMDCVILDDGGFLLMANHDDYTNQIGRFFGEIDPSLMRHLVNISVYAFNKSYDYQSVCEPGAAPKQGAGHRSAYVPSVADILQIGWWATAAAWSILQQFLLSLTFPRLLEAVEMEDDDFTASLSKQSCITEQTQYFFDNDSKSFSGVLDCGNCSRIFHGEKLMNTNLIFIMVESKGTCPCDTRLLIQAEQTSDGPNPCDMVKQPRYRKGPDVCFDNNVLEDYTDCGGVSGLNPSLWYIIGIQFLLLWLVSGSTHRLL
How it was run: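 Membranes enriched in human α2δ-1 incubated with 15 nM [3H]-gabapentin in 10 mM Hepes-KOH pH 7.4, 60 min at 27 °C; nonspecific binding defined with 10 μM pregabalin. Filtration and scintillation counting; % inhibition at 1 or 10 μM, or Ki from five concentrations.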

T1 sequence (Q99720 whole entry): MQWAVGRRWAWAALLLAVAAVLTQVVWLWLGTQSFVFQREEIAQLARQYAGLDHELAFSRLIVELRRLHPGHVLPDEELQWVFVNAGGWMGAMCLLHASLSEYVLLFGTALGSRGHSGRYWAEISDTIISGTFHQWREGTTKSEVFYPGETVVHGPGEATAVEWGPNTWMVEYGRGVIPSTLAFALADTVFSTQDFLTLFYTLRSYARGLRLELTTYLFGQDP

Row | SMILES | Ki (Human σ1 receptor) [µM] | Ki [1] [µM]
1 | Cc1nn2c(C3CCCN(Cc4ccc(Cl)cc4)C3)ccnc2c1CNCC1CCN(S(C)(=O)=O)CC1 (stereo not drawn) [Example 179, 1-(7-(1-(4-Chlorobenzyl)piperidin-3-yl)-2-methylpyrazolo[1,5-a]pyrimidin-3-yl)-N-((1-(methylsulfonyl)piperidin-4-yl)methyl)methanamine] | 0.5 to 1 | 0.5 to 5
2 | Cc1nn2c(C3CCCN(CC4CCOCC4)C3)ccnc2c1CNCC1CCOCC1 (stereo not drawn) [Example 185, 1-(2-Methyl-7-(1-((tetrahydro-2H-pyran-4-yl)methyl)piperidin-3-yl)pyrazolo[1,5-a]pyrimidin-3-yl)-N-((tetrahydro-2H-pyran-4-yl)methyl)methanamine] | > 1 | > 5
3 | CC(C)CCN1CCCC(c2ccnc3c(CNCC4CCOCC4)c(Cl)nn23)C1 (stereo not drawn) [Example 191, 1-(2-Chloro-7-(1-isopentylpiperidin-3-yl)pyrazolo[1,5-a]pyrimidin-3-yl)-N-((tetrahydro-2H-pyran-4-yl)methyl)methanamine] | < 0.5 | > 5
4 | CC(=O)N1CCC(CNCc2c(Cl)nn3c(C4CCCN(CCC(C)C)C4)ccnc23)CC1 (stereo not drawn) [Example 192, 1-(4-((((2-chloro-7-(1-isopentylpiperidin-3-yl)pyrazolo[1,5-a]pyrimidin-3-yl)methyl)amino)methyl)piperidin-1-yl)ethan-1-one] | < 0.5 | > 5
5 | CC(=O)N1CCC(CNCc2c(C)nn3c([C@H]4CCCN(Cc5ccc(Cl)cc5)C4)ccnc23)CC1 [Example 193, (S)-1-(4-((((7-(1-(4-Chlorobenzyl)piperidin-3-yl)-2-methylpyrazolo[1,5-a]pyrimidin-3-yl)methyl)amino)methyl)piperidin-1-yl)ethan-1-one] | < 0.5 | < 0.5
6 | CC(=O)N1CCC(CNCc2c(C)nn3c([C@@H]4CCCN(Cc5ccc(Cl)cc5)C4)ccnc23)CC1 [Example 194, (R)-1-(4-((((7-(1-(4-chlorobenzyl)piperidin-3-yl)-2-methylpyrazolo[1,5-a]pyrimidin-3-yl)methyl)amino)methyl)piperidin-1-yl)ethan-1-one] | < 0.5 | 0.5 to 5
7 | Cc1nn2c([C@@H]3CCCN(Cc4ccc(Cl)cc4)C3)ccnc2c1CN[C@H](C)c1ccccc1 [Example 195, (R)—N-((7-((R)-1-(4-Chlorobenzyl)piperidin-3-yl)-2-methylpyrazolo[1,5-a]pyrimidin-3-yl)methyl)-1-phenylethan-1-amine] | < 0.5 | 0.5 to 5
8 | Cc1nn2c([C@H]3CCCN(Cc4ccc(Cl)cc4)C3)ccnc2c1CN[C@H](C)c1ccccc1 [Example 196, (R)—N-((7-((S)-1-(4-chlorobenzyl)piperidin-3-yl)-2-methylpyrazolo[1,5-a]pyrimidin-3-yl)methyl)-1-phenylethan-1-amine] | < 0.5 | > 5
9 | Cc1nn2c([C@@H]3CCCN(Cc4ccc(Cl)cc4)C3)ccnc2c1CN[C@@H](C)c1ccccc1 [Example 197, (S)—N-((7-((R)-1-(4-chlorobenzyl)piperidin-3-yl)-2-methylpyrazolo[1,5-a]pyrimidin-3-yl)methyl)-1-phenylethan-1-amine] | < 0.5 | 0.5 to 5
10 | Cc1nn2c([C@H]3CCCN(Cc4ccc(Cl)cc4)C3)ccnc2c1CN[C@@H](C)c1ccccc1 [Example 198, (S)—N-((7-((S)-1-(4-chlorobenzyl)piperidin-3-yl)-2-methylpyrazolo[1,5-a]pyrimidin-3-yl)methyl)-1-phenylethan-1-amine] | < 0.5 | < 0.5

Second part, the compound after the results:

Row | Ki (Human σ1 receptor) [µM] | Ki [1] [µM] | SMILES
11 | < 0.5 | 0.5 to 5 | Cc1nn2c(C3CCCN(Cc4ccc(Cl)cc4)C3)ccnc2c1CNCCC1CCOCC1 (stereo not drawn) [Example 178, N-((7-(1-(4-Chlorobenzyl)piperidin-3-yl)-2-methylpyrazolo[1,5-a]pyrimidin-3-yl)methyl)-2-(tetrahydro-2H-pyran-4-yl)ethan-1-amine]
12 | < 0.5 | 0.5 to 5 | CC(=O)N1CCC(CNCc2c(C)nn3c(C4CCCN(Cc5ccccc5)C4)ccnc23)CC1 (stereo not drawn) [Example 180, 1-(4-((((7-(1-Benzylpiperidin-3-yl)-2-methylpyrazolo[1,5-a]pyrimidin-3-yl)methyl)amino)methyl)piperidin-1-yl)ethan-1-one]
13 | < 0.5 | 0.5 to 5 | Cc1nn2c(C3CCCN(Cc4cccc(F)c4)C3)ccnc2c1CNCC1CCOCC1 (stereo not drawn) [Example 181, 1-(7-(1-(3-Fluorobenzyl)piperidin-3-yl)-2-methylpyrazolo[1,5-a]pyrimidin-3-yl)-N-((tetrahydro-2H-pyran-4-yl)methyl)methanamine]
14 | < 0.5 | < 0.5 | Cc1nn2c(C3CCCN(Cc4ccc(F)c(F)c4)C3)ccnc2c1CNCC1CCOCC1 (stereo not drawn) [Example 182, 1-(7-(1-(3,4-Difluorobenzyl)piperidin-3-yl)-2-methylpyrazolo[1,5-a]pyrimidin-3-yl)-N-((tetrahydro-2H-pyran-4-yl)methyl)methanamine]
15 | < 0.5 | > 5 | Cc1nn2c(C3CCCN(Cc4ccc(C#N)cc4)C3)ccnc2c1CNCC1CCOCC1 (stereo not drawn) [Example 183, 4-((3-(2-Methyl-3-((((tetrahydro-2H-pyran-4-yl)methyl)amino)methyl)pyrazolo[1,5-a]pyrimidin-7-yl)piperidin-1-yl)methyl)benzonitrile]
16 | < 0.5 | > 5 | Cc1nn2c(C3CCCN(Cc4ccc(C(F)(F)F)nc4)C3)ccnc2c1CNCC1CCOCC1 (stereo not drawn) [Example 184, 1-(2-Methyl-7-(1-((6-(trifluoromethyl)pyridin-3-yl)methyl)piperidin-3-yl)pyrazolo[1,5-a]pyrimidin-3-yl)-N-((tetrahydro-2H-pyran-4-yl)methyl)methanamine]
17 | < 0.5 | > 5 | Cc1nn2c(C3CCCN(Cc4ccc(Cl)cc4Cl)C3)ccnc2c1CN(C)C (stereo not drawn) [Example 186, 1-(7-(1-(2,4-Dichlorobenzyl)piperidin-3-yl)-2-methylpyrazolo[1,5-a]pyrimidin-3-yl)-N,N-dimethylmethanamine]
18 | < 0.5 | < 0.5 | CCc1nn2c(C3CCCN(Cc4ccc(Cl)cc4)C3)ccnc2c1CNCC1CCOCC1 (stereo not drawn) [Example 187, 1-(7-(1-(4-Chlorobenzyl)piperidin-3-yl)-2-ethylpyrazolo[1,5-a]pyrimidin-3-yl)-N-((tetrahydro-2H-pyran-4-yl)methyl)methanamine]
19 | < 0.5 | < 0.5 | Clc1ccc(CN2CCCC(c3ccnc4c(CNCC5CCOCC5)c(C5CC5)nn34)C2)cc1 (stereo not drawn) [Example 188, 1-(7-(1-(4-Chlorobenzyl)piperidin-3-yl)-2-cyclopropylpyrazolo[1,5-a]pyrimidin-3-yl)-N-((tetrahydro-2H-pyran-4-yl)methyl)methanamine]
20 | < 0.5 | < 0.5 | COc1nn2c(C3CCCN(Cc4ccc(Cl)cc4)C3)ccnc2c1CNCC1CCOCC1 (stereo not drawn) [Example 189, 1-(7-(1-(4-Chlorobenzyl)piperidin-3-yl)-2-methoxypyrazolo[1,5-a]pyrimidin-3-yl)-N-((tetrahydro-2H-pyran-4-yl)methyl)methanamine]
21 | < 0.5 | < 0.5 | Clc1ccc(CN2CCCC(c3ccnc4c(CNCC5CCOCC5)c(Cl)nn34)C2)cc1 (stereo not drawn) [Example 190, 1-(2-Chloro-7-(1-(4-chlorobenzyl)piperidin-3-yl)pyrazolo[1,5-a]pyrimidin-3-yl)-N-((tetrahydro-2H-pyran-4-yl)methyl)methanamine]

Reference: US12617797B2, “Substituted pyrazolo [1,5-a]pyrimidines having multimodal activity against pain” (ESTEVE PHARMACEUTICALS, S.A., priority 2020, dated 2026)
